From the supplement of paper PMC10307832

Tests used:
Assay in all cases: relative viability (nuclei count vs DMSO), 5 days (fraction); higher = more cells survive
[1] = compound: CC1(COc2ccc3c(c2)ncn3-c2ccc3cccc(N4CCC(N)CC4)c3n2)COC1 [Crenolanib] + Nc1nc2[nH]cc(CCc3ccc(C(=O)N[C@@H](CCC(=O)O)C(=O)O)cc3)c2c(=O)[nH]1 [Pemetrexed] (partner 0.2 µM)
Summary of the method: (§1)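 Lung cancer cell lines in 1536-well plates got either a single drug or a fixed anchor-drug dose together with five library-drug doses (not always all listed) in √10 steps, by pin tool, on the day after seeding. Nuclei were counted after 5 days, and relative viability is the treated-to-vehicle ratio of nuclei counts. Values are medians of duplicate plates.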

[2] = compound: O=C1NC(=O)[C@@H](c2cn3c4c(cccc24)CCC3)[C@@H]1c1c[nH]c2ccccc12 [Tivantinib] + N=C(N)NC(=N)NCCc1ccccc1 [Phenformin] (partner 250 µM)
Summary of the method: as §1

[3] = compound: CC1(COc2ccc3c(c2)ncn3-c2ccc3cccc(N4CCC(N)CC4)c3n2)COC1 [Crenolanib] + NC(=O)Nc1cc(-c2cccc(F)c2)sc1C(=O)N[C@H]1CCCNC1 [AZD7762] (partner 0.2 µM)
Summary of the method: as §1

[4] = compound: CC1(COc2ccc3c(c2)ncn3-c2ccc3cccc(N4CCC(N)CC4)c3n2)COC1 [Crenolanib] + Cc1cc(Nc2cc(N3CCN(C)CC3)nc(Sc3ccc(NC(=O)C4CC4)cc3)n2)n[nH]1 [Tozasertib] (partner 0.1 µM)
Summary of the method: as §1

Cell Line	relative viability ([1]; first compound 0.01 µM)	relative viability ([1]; first compound 0.03162 µM)	relative viability ([1]; first compound 0.1 µM)	relative viability ([1]; first compound 0.3162 µM)	relative viability ([1]; first compound 1 µM)	relative viability ([2]; first compound 0.01 µM)	relative viability ([2]; first compound 0.03162 µM)	relative viability ([2]; first compound 0.1 µM)	relative viability ([2]; first compound 0.3162 µM)	relative viability ([3]; first compound 0.01 µM)	relative viability ([3]; first compound 0.03162 µM)	relative viability ([3]; first compound 0.1 µM)	relative viability ([3]; first compound 0.3162 µM)	relative viability ([3]; first compound 1 µM)	relative viability ([4]; first compound 0.01 µM)	relative viability ([4]; first compound 0.03162 µM)	relative viability ([4]; first compound 0.1 µM)	relative viability ([4]; first compound 0.3162 µM)	relative viability ([4]; first compound 1 µM)
LC-2-ad	0.265	0.287	0.277	0.291	0.261	0.563	0.491	0.595	0.541	0.892	0.898	0.777	0.908	0.821	0.495	0.435	0.447	0.34	0.385
LCLC-97TM1	0.192	0.188	0.182	0.197	0.184	0.456	0.496	0.453	0.388	0.316	0.219	0.41	0.561	0.277	0.268	0.194	0.247	0.202	0.258
LCLC-103H	0.453	0.45	0.476	0.503	0.48	0.327	0.312	0.378	0.374	0.758	0.761	0.714	0.759	0.702	0.46	0.588	0.448	0.359	0.458
LK-2	0.314	0.268	0.263	0.27	0.274	0.44		0.314	0.339	0.483	0.46	0.423	0.499	0.453	0.164	0.179	0.19	0.177	0.171
LOU-NH91	0.399	0.45	0.353	0.423	0.383	0.689	0.715	0.702	0.615	0.765	0.762	0.782	0.817	0.697	0.767	0.655	0.653	0.431	0.616
LU99A	0.22	0.204	0.151	0.197	0.198	0.852	0.805	0.804	0.942	0.42	0.419	0.414	0.467	0.401	0.288	0.261	0.277	0.249	0.263
LXF-289	0.853	0.905	0.865	0.922	0.897	0.536	0.542	0.528	0.504	1.03	1.13	1.09	1.11	1.05	0.183	0.222	0.201	0.181	0.176
NCI-H23	0.761	0.62	0.644	0.817	0.615	0.732	0.886	0.749	0.792	0.273	0.309	0.244	0.268	0.276	0.358	0.394	0.385	0.313	0.27
NCI-H322M	0.597	0.583	0.631	0.6	0.605	0.753	0.708	0.754		0.589	0.52	0.555	0.544	0.695	0.51	0.503	0.461	0.424	0.465
NCI-H358	0.176	0.169	0.176	0.178	0.188	0.339	0.327	0.282	0.189	0.577	0.67	0.465	0.537	0.584	0.0999	0.097	0.0998	0.0966	0.12
NCI-H441	0.261	0.278	0.269	0.312	0.273	0.872	0.84	0.777	0.828	1.24	1.56	1.15	1.33	1.17	0.68	0.82	0.643	0.717	0.663
NCI-H460	0.063	0.067	0.075	0.0642	0.0669	0.532	0.509	0.474	0.563	0.668	0.482	0.695	0.872	0.86	0.621	0.44	0.421	0.056	0.397
NCI-H522	0.976	1.19	1.06	1.06	0.738	0.604	0.646	0.636	0.644	1.03	0.853	0.773	0.88	0.836	0.559	0.604	0.559	0.561	0.576
NCI-H596	0.462	0.481	0.47	0.513	0.507	0.665	0.651	0.715	0.771	1.27	1.16	1.03	1.22	1.11	0.944	1.09	1.02	1.19	0.972
NCI-H647	0.202	0.19	0.201	0.209	0.217	0.583	0.476	0.437	0.619	0.616	0.497	0.448	0.481	0.424	0.294	0.384	0.285	0.354	0.297
NCI-H650	1.03	1.01	0.93	0.932	0.918	0.47	0.387	0.448	0.479	1.06	0.975	1.01	0.864	0.936	0.826	0.79	0.707	0.327	0.614
NCI-H838	0.247	0.253	0.258	0.264	0.281	0.705	0.554	0.464	0.514	0.883	0.977	0.886	0.924	0.901	0.321	0.287	0.25	0.266	0.251
NCI-H1355	1.07	1.12	0.947	1.13	1.01	0.474	0.475	0.439	0.436	0.729	0.89	0.705	0.732	0.653	0.586	0.596	0.508	0.354	0.534
NCI-H1395	0.88	0.768	0.924	0.831	0.864	0.468	0.513	0.45	0.437	0.374	0.392	0.412	0.457	0.473	0.742	0.759	0.81	0.691	0.659
NCI-H1437	0.336	0.3	0.297	0.352	0.336	0.3	0.278	0.275	0.351	1.15	1.18	1.07	1.19	1.14	0.458	0.443	0.415	0.437	0.39
NCI-H1651	0.573	0.599	0.592	0.566	0.62	0.348	0.287	0.318	0.376	0.49	0.399	0.434	0.472	0.558	0.649	0.716	0.592	0.852	0.61
NCI-H1666	0.886	0.855	0.855	0.921	0.831	0.566	0.576	0.531	0.552	0.928	0.831	0.761	0.905	0.889	0.695	0.613	0.633	0.591	0.555
NCI-H1734	0.441	0.423	0.423	0.395	0.38	0.401	0.346	0.386	0.451	0.569	0.61	0.567	0.756	0.659	0.275	0.251	0.249	0.306	0.275
NCI-H1755	0.468	0.43	0.416	0.499	0.453	0.591	0.591	0.589	0.666	0.423	0.468	0.362	0.529	0.484	0.666	0.594	0.527	0.501	0.549
NCI-H1793	1.02	0.912	0.835	1.08	0.993	0.347	0.388	0.371	0.213	0.549	0.794	0.538	0.366	0.645	0.368	0.362	0.396	0.226	0.422
NCI-H1915	0.536	0.481	0.511	0.528	0.531	0.362	0.354	0.367	0.378	0.745	0.74	0.688	0.793	0.585	0.453	0.415	0.436	0.424	0.391
NCI-H1944	0.735	0.646	0.562	0.837	0.542	0.189	0.179	0.192	0.228	0.551	0.587	0.534	0.605	0.497	0.251	0.248	0.261	0.242	0.234
NCI-H1975	0.306	0.316	0.289	0.284	0.312	0.398	0.421	0.403	0.357	0.741	0.732	0.629	0.639	0.712	0.754	0.759	0.698	0.881	0.632
